Experimental data taken from patent US4469701A, “Pyrrolid-3-en-2-ones and pharmaceutical methods of use thereof” (Stauffer Chemical Company, priority 1983, dated 1984).
Like-named read-outs stand apart in the source and are kept apart here.

Legend:
mice = test: Antiarrhythmic: chloroform-induced cardiac arrhythmia in mice; type: in vivo, mouse; details: Mus musculus, ip, read-out: ED-100, antiarrhythmic
Protocol: ^2 A = Antiarrythmic. Less than 2/3 mouse hearts fibrillating 15 min.

[1] = system: spontaneously hypertensive rats (SHR); test: Antihypertensive: blood pressure (tail cuff) in spontaneously hypertensive rats (SHR); type: in vivo, rat; details: Rattus norvegicus, po, read-out: ED-100, antihypertensive
Protocol: Blood pressure was measured indirectly (tail cuff) in unanesthetized, unheated spontaneously hypertensive rats (SHR) before and 2, 4, and 6 hours after p.o. dosing. Reduction in mean pressure by more than 10% (>10) at any two consecutive measurement times after dosing indicates antihypertensive activity.

rats [2] = test: Antiulcer: stress induced gastric ulcers in rats; type: in vivo, rat; details: for ED100: Rattus norvegicus, po, read-out: ED-100, antiulcer
Protocol: Fasted rats were dosed, p.o., 30 minutes before immobilization in wire mesh and partial immersion in water for 4 hours. Inhibition of the resulting stress induced gastric ulcers by more than 60% (>60) indicates activity.
^6 U = Antiulcerative. Percent inhibition of stress ulcers 4 hr.
following a 50 mg/kg oral dose in rats.

[3] = system: hypercholesterolemic mice; test: Hypocholesterolemic: serum cholesterol in hypercholesterolemic mice; type: in vivo, mouse; details: Mus musculus, po, hypercholesterolemic mice; reference compounds; read-out: ED-100, hypocholesterolemic
Protocol: Mice made hypercholesterolemic by being fed a high cholesterol-cholic acid diet for 7 days were dosed on the sixth and seventh days, p.o. After fasting overnight, reduction in serum cholesterol concentration by more than 15% (>15) from hypercholesterolemic control mice indicates activity.
^4 C = Hypocholesterolemic. Percent decrease in serum cholesterol in
hypercholesterolemic mice given 2 oral doses of 200 mg/kg drug candidate

rats [4] = test: Bradycardia: heart rate by EKG in rats; type: in vivo, rat; details: Rattus norvegicus, po, rats; reference compounds; read-out: ED-100, bradycardia
Protocol: […] Decrease in heart rate by more than 10% (>10) is considered a bradycardic effect.
Percent decrease in heart rate 45 min. after a 5
mg/kg oral dose in rats.

Q: How did the ED100 (mice; mice, reference compounds) turn out when `CC(C)N(CCC(C(N)=O)(c1ccccc1)c1ccccn1)C(C)C` (stereo not drawn) [disopyramide, reference compound] was run?
A: Its ED100 is 50 mg/kg.

Q: Which ED100 (mice) does the source give for `COc1ccc(CCN(C)CCCC(C#N)(c2ccc(OC)c(OC)c2)C(C)C)cc1OC` (stereo not drawn) [verapamil, reference compound] here?
A: The ED100 was 50 mg/kg.

Q: With `NNc1nncc2ccccc12` [hydralazine, reference compound] as the molecule, how does the ED100 [1] read?
A: Its ED100 is 2.5 mg/kg.

Q: With `C=CC1CN2CCC1CC2C(O)c1ccnc2ccc(OC)cc12` (stereo not drawn) [qunidine, reference compound] as the molecule, how does the ED100 (mice) read?
A: The ED100 was 100 mg/kg.

Q: With `CS(=O)(=O)c1ccc(-c2cn3ccccc3n2)cc1` [zolimidine, reference compound] as the molecule, how does the ED100 (rats [2]; rats, reference compounds) read?
A: The ED100 was over 100 mg/kg.

Q: Which “ED-100, antiulcer” value (rats [2]; p.o., rats, reference compounds) does the source give for `NC(=S)Cc1ccccn1` [pyridyl-2-thioacetamide, reference compound] here?
A: The value was 50 mg/kg.

Q: How did the ED100 (mice; mice, reference compounds) turn out when `Cc1cccc(C)c1OCC(C)N` (stereo not drawn) [mexilitine, reference compound] was run?
A: Its ED100 is 50 mg/kg.

Q: With `C[C@](N)(Cc1ccc(O)c(O)c1)C(=O)O` [methyldopa, reference compound] as the molecule, how does the ED100 ([1]; SHR, reference compounds) read?
A: Its ED100 is 50 mg/kg.

Q: `CNC1=Nc2ccc(Cl)cc2C(c2ccccc2)=[N+]([O-])C1` [chlordiazepoxide, reference compound] was tested. Which ED100 (rats [2]) did it give?
A: Its ED100 is 100 mg/kg.

Q: `CCN(CC)CCOC(=O)c1ccc(N)cc1` [procaine, reference compound] was tested. Which ED100 (mice) did it give?
A: Its ED100 is 100 mg/kg.

Q: How did the ED100 (rats [2]; rats, reference compounds) turn out when `CC1(C)[C@@H](OC(=O)CCC(=O)O)CC[C@]2(C)[C@H]3C(=O)C=C4[C@@H]5C[C@@](C)(C(=O)O)CC[C@]5(C)CC[C@@]4(C)[C@]3(C)CC[C@@H]12` [carbenoxolone, reference compound] was run?
A: The ED100 was over 100 mg/kg.

Q: Which results are given for `COC(=O)C1=C(C)NC(C)=C(C(=O)OC)C1c1ccccc1[N+](=O)[O-]` [nifedipine, reference compound]?
A: ED100 ([1]; SHR, reference compounds): 50 mg/kg; ED100 (mice; mice, reference compounds): 25 mg/kg

Q: How did the ED100 ([1]; SHR, reference compounds) turn out when `Cc1ccc(N(CC2=NCCN2)c2cccc(O)c2)cc1` [phentolamine, reference compound] was run?
A: Its ED100 is 25 mg/kg.

Q: How did the ED100 [3] turn out when `CCOC(=O)C(C)(C)Oc1ccc(Cl)cc1` [clofibrate, reference compound] was run?
A: The ED100 was 400 mg/kg.

Q: Which ED100 ([1]; SHR, reference compounds) does the source give for `COC(=O)[C@H]1[C@H]2C[C@@H]3c4[nH]c5cc(OC)ccc5c4CCN3C[C@H]2C[C@@H](OC(=O)c2cc(OC)c(OC)c(OC)c2)[C@@H]1OC` [reserpine, reference compound] here?
A: The ED100 was 25 mg/kg.

Q: And the ED100 (rats [4])?
A: The ED100 was 5 mg/kg.

Q: Which ED100 [1] does the source give for `N=C(N)NN=Cc1c(Cl)cccc1Cl` [quanabenz, reference compound] here?
A: The ED100 was under 6 mg/kg.

Q: And the ED100 (rats [4])?
A: Its ED100 is 2.5 mg/kg.

Q: For `CCN(CC)CC(=O)Nc1c(C)cccc1C` [lidocaine, reference compound], which ED100 (mice) is on record?
A: Its ED100 is 50 mg/kg.

Q: `COc1cc2nc(N3CCN(C(=O)c4ccco4)CC3)nc(N)c2cc1OC` [prazosin, reference compound] was tested. Which ED100 ([1]; SHR, reference compounds) did it give?
A: Its ED100 is 1 mg/kg.

Q: Which ED100 (mice; mice, reference compounds) does the source give for `COc1ccc([C@@H]2Sc3ccccc3N(CCN(C)C)C(=O)[C@@H]2OC(C)=O)cc1` [diltiazem, reference compound] here?
A: Its ED100 is 50 mg/kg.

Q: And the ED100 (rats [4])?
A: The ED100 was 10 mg/kg.

Q: For `C[C@H](CS)C(=O)N1CCC[C@H]1C(=O)O` [captopril, reference compound], which ED100 ([1]; SHR, reference compounds) is on record?
A: Its ED100 is 100 mg/kg.

Q: For `CC(C)NCC(O)COc1cccc2[nH]ccc12` (stereo not drawn) [pindolol, reference compound], which ED100 (mice) is on record?
A: Its ED100 is 50 mg/kg.

Q: How did the ED100 (mice) turn out when `CC(C)NCC(O)COc1cccc2ccccc12` (stereo not drawn) [propranolol, reference compound] was run?
A: Its ED100 is 40 mg/kg.

Q: What about the ED100 (rats [4]) of the same molecule?
A: Its ED100 is 40 mg/kg.

Q: For `CC(CCc1ccccc1)NCC(O)c1ccc(O)c(C(N)=O)c1` (stereo not drawn) [labetalol, reference compound], which ED100 ([1]; SHR, reference compounds) is on record?
A: The ED100 was 50 mg/kg.

Q: Which ED100 [1] does the source give for `Clc1cccc(Cl)c1N=C1NCCN1` [clonidine, reference compound] here?
A: Its ED100 is under 5 mg/kg.

Q: And the ED100 (rats [4])?
A: Its ED100 is 0.5 mg/kg.
